Calls of active or inactive are those of the source. No cut-off for these calls is given here.
Tests used:
Assay type in all cases: functional
MCF7 [1] = experiment: Estrogenic potency in human MCF7 BUS cells assessed as drug level inducing maximal cell proliferation
MCF7 [2] = experiment: Proliferative effect in human MCF7 BUS cells assessed as ratio of increase in cell number in drug treated to control
MCF7 [3] = experiment: Proliferative effect in human MCF7 BUS cells assessed as increase in cell number relative to 17-beta estradiol; set-up: concentration or dose not given beside the values
MCF7 [4] = experiment: Proliferative potency in human MCF7 BUS cells assessed as induction of maximal cell proliferation relative to 17-beta estradiol

| Structure (SMILES) | MED (MCF7 [1]) [µM] | Ratio (MCF7 [2]) | Activity (MCF7 [3]) [%] | Activity (MCF7 [4]) [%] | Activity (MCF7 [2]) |
| --- | --- | --- | --- | --- | --- |
| COc1cc(C(=O)[C@@H](C)[C@H](C)Cc2ccc3c(c2)OCO3)ccc1O [OLEIFERIN D] | 10 | 4 | 42.8 | 0.01 |  |
| Oc1ccc2c(c1)O[C@H](c1ccc3c(c1)OCO3)CC2 | 10 | 5.7 | 67.1 | 0.01 |  |
| C/C=C/c1cc(OC)c2c(c1)[C@@H](C)[C@H](c1ccc(O)c(OC)c1)O2 [LICARINE A] | 10 | 2.8 | 26.4 | 0.01 |  |
| COc1ccc([C@H]2Oc3c(OC)cc(C=O)cc3[C@@H]2C)cc1O [PERSEAL F] |  |  | 0 | 0 | inactive |
| C[C@H](Cc1ccc2c(c1)OCO2)[C@@H](C)Cc1ccc2c(c1)OCO2 [MACHILIN A] | 10 | 1.9 | 13.5 | 0.01 |  |
| C[C@H](Cc1ccc(O)cc1)[C@H](C)Cc1ccc2c(c1)OCO2 | 10 | 5.8 | 68.7 | 0.01 |  |
| C[C@@H]1[C@@H](c2ccc(O)cc2)c2cc(O)ccc2C[C@H]1C | 10 | 6.4 | 77.8 | 0.01 |  |
| COc1cc(O)cc(O)c1C(=O)CCc1ccc2c(c1)OCO2 | 10 | 2.5 | 22.1 | 0.01 |  |
| C[C@@H]([C@H](C)Cc1ccc2c(c1)OCO2)[C@@H](O)c1ccc2c(c1)OCO2 [OLEIFERIN C] | 10 | 4.4 | 47.8 | 0.01 |  |
| C[C@@H]1[C@@H](c2ccc3c(c2)OCO3)c2cc3c(cc2C[C@H]1C)OCO3 [CAGAYANINE] | 10 | 2.2 | 17.9 | 0.01 |  |
| C[C@]12CC[C@@H]3c4ccc(O)cc4CC[C@H]3[C@@H]1CC[C@@H]2O [ESTRADIOL] | 0.001 | 8 |  |  |  |
| CCO[C@@H](c1ccc2c(c1)OCO2)[C@@H](C)[C@H](C)Cc1ccc2c(c1)OCO2 | 10 | 6.9 | 84 | 0.01 |  |
| C/C(=C/c1ccc(O)cc1)C(C)Cc1ccc(O)cc1 (stereo unspecified) | 10 | 6.2 | 73.7 | 0.01 |  |
| C/C=C/c1cc(OC)c2c(c1)[C@@H](C)[C@H](c1ccc3c(c1)OCO3)O2 [LICARINE B] |  |  | 0 | 0 | inactive |
| COc1ccc(CCC(=O)c2c(O)cc(O)cc2OC)cc1 | 10 | 6.6 | 80.7 | 0.01 |  |
| C[C@H](Cc1ccc2c(c1)OCO2)[C@H](C)C(=O)c1ccc(O)cc1 | 10 | 4.51 | 50.1 | 0.01 |  |
| COc1cc(C[C@H](C)[C@H](C)Cc2ccc3c(c2)OCO3)ccc1O [AUSTROBAILIGNAN 6] |  |  | 0 | 0 | inactive |
| C[C@@H]([C@H](C)Cc1ccc2c(c1)OCO2)[C@H](O)c1ccc2c(c1)OCO2 |  |  | 0 | 0 | inactive |

Reference: ChEMBL document CHEMBL1143987, “Structure and estrogenic activity of new lignans from Iryanthera lancifolia” (2008)
